According to patent publication US20120214846A1, “HEXAHYDROCYCLOPENTYL[F]INDAZOLE PYRIDYL ETHANOLS AND DERIVATIVES THEREOF AS SELECTIVE GLUCOCORTICOID RECEPTOR MODULATORS” (MERCK SHARP & DOHME CORP, priority 2009, published 2012):
Values after ≈ are worked out from the molar mass of the structure shown. Read-outs that look alike come from different tables or passages of the source.

Experiments:
GR [1] = molecular target: T1, GR (Homo sapiens, UniProt P04150); assay: Trans-Activation Modulation of Glucocorticoid Receptor Assay (GRAMMER), MMTV-LUC reporter, A549 cells; type: cell-based; design: endogenous in cells
T1 sequence (P04150 1-777): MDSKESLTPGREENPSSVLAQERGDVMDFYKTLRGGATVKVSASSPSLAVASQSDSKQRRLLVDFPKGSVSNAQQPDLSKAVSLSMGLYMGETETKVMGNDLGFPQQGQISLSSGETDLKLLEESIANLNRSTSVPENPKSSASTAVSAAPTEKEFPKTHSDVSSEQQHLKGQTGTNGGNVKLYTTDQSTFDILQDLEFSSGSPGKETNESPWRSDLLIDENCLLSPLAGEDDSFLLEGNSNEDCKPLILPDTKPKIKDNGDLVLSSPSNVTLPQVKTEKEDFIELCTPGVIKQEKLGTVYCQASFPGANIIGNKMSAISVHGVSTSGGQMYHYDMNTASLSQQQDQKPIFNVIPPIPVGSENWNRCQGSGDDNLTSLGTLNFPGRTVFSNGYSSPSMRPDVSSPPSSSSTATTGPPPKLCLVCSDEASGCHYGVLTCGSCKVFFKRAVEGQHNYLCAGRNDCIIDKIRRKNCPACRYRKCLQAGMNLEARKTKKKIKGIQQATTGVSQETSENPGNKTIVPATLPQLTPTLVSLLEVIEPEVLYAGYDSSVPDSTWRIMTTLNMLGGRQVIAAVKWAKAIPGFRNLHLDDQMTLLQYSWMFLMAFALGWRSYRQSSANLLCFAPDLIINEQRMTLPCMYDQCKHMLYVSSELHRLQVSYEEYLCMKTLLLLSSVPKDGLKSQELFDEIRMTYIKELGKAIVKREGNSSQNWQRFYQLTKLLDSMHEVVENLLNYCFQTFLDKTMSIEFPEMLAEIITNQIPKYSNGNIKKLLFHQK
Text: Trans-Activation Modulation of Glucocorticoid Receptor Assay
This assay assesses the ability of test compounds to control transcription from the MMTV-LUC reporter gene in lung adenocarcinoma A549 cells or HeLa cells, a human […] cell line that naturally expresses the human GR. The assay measures induction of a modified MMTV LTR/promoter linked to the LUC reporter gene.
The routine transient assay consists of plating 7,000-25,000 cells/well of a white, clear-bottom 96-well plate. Alternatively, 384-well plates can be used at a cell concentration of 10,000/well. The media that the cells are plated in is “exponential growth medium” which consists of phenol red-free RPMI1640 containing 10% FBS, 4 mM L-glutamine, 20 mM HEPES, 10 ug/mL human insulin, and 20 ug/mL gentamicin. Incubator conditions are 37° C. and 5% CO2. The transfection is done in batch mode. The cells are trypsinized and counted to the right cell number in the proper amount of fresh media. It is then gently mixed with the FuGene6/DNA mix and plated onto the 96 or 384-well plate, all the wells receive 100 uL or 40 uL, respectively, of medium+lipid/DNA complex then incubated 37° C. overnight. The transfection cocktail consists of serum-free OptiMEM, FuGene6 reagent and DNA. The manufacturer's (Roche Biochemical) protocol for cocktail setup is as follows: The lipid to DNA ratio is approximately 2.5:1 and the incubation time is 20 min at room temperature. Sixteen to 24 hours after transfection, the cells are treated with dexamethasone to a final concentration of 10 nM as well as the compound of interest, such that final DMSO (vehicle) concentration is equal to or less than 1%. Each plate also contains samples that are treated with 10 nM dexamethasone alone, which is used as the 100% activity control. The cells are exposed to the compounds for 24 hours. After 24 hours, the cells are lysed by a Promega cell culture lysis buffer for approximately 30 min and then the luciferase activity in the extracts is assayed in the 96-well format luminometer. In 384-well format, Steady-Glo (Promega) or Steady-Lite (PerkinElmer) can be used by adding an equal volume of reagent to the media present in each well. […] Antagonist activity is calculated by determining the decrease in dexamethasone-induced activity in response to compound treatment relative to samples that were treated with dexamethasone alone. […] This transactivation assay can be performed in an agonist and antagonist mode to identify these different activities.
The action of compounds is also tested in an antagonist mode (Anti-GRAMMER) in which the cells are treated with medium containing an agonist such as 10 nM DEX and the ability to agents to inhibit the activation by an agonist is measured.

GR [2] = molecular target: T1, GR; assay: Transrepression Assay (GITAR), TNFα-β-lactamase reporter, U937 cells; type: cell-based; design: U937 cells contain an endogenous glucocorticoid receptor (GR); endogenous in cells; host or cells: U937 cells stably transfected with the TNF-alpha promoter beta-lactamase reporter
Text: This assay assesses the ability of test compounds to control transcription from the TNFα-β-lactamase reporter gene in U937 cells, a human myelomonocytic leukemia cell line that naturally expresses the human GR. The assay measures compound dependent-repression of the TNFa promoter linked to a reporter gene.
The human U937 cells that had been stablely transfected with the TNF-α promoter driving […] are used for this assay. U937 cells contain an endogenous glucocorticoid receptor (GR). […] 50,000 cells/well are plated in 96 well black-walled plates the day of assay. Test compounds are added 10 μL/well, and cells are incubated at 37° C. for 30˜45 min. For assaying compounds, first dilute 1:10 in DMSO to make 1 mM, then further dilute 1:100 in medium to make 10× stock prior to adding to the cells. Add 50 ng/ml PMA (Sigma, cat#P8139) 10 μL/well to a final concentration 5 ng/ml, and 1 μg/ml LPS (Sigma, cat#L4130) 10 μL/well to a final concentration 100 ng/ml. Incubate cells at 37° C. overnight for ˜18 hr. PMA is stored frozen as 100 μg/ml stock in DMSO. Dilute 1:10 in DMSO for a working stock of […] and store at −20 C. For assaying, dilute the 10 μg/ml working stock 1:200 in medium to make a 10× solution (50 ng/ml). Store frozen LPS at 1 mg/ml in PBS, dilute 1:1000 in medium to make 10× (1 μg/ml) for the assay. Add 6× loading buffer (CCF2-AM) 20 μL/well, and incubate at room temperature for 70˜90 min. […] The activity repressed by 100 nM dexamethasone alone is set as 100% activity.

Solubility at pH 2 = type: physicochemical
[3] = A549 cells, inflection point, read-out: Transactivation A549 Cells GRAMMER IP
[4] = A549 cells, relative to 300 nM dexamethasone
[5] = U937 cells, inflection point, read-out: Transrepression U937 Cells GITAR IP
[6] = U-937, U937 cells, activity repressed by 100 nM dexamethasone set as 100%, read-out: Transrepression U937 Cells GITAR Emax
[7] = pH 2, aqueous buffer, pH 2, read-out: Solubility At pH 2
[8] = U937 cells, activity repressed by 100 nM dexamethasone set as 100%
[9] = A549, A549 cells, relative to 300 nM dexamethasone, read-out: Transactivation A549 Cells GRAMMER Emax
[10] = pH 2, read-out: Solubility At pH 2

Structure (SMILES) | EC50 (GR [1]; [3]) | Transactivation A549 Cells GRAMMER Emax (GR [1]; [4]) | EC50 (GR [2]; [5]) | Emax (GR [2]; [6]) | solubility (Solubility at pH 2; [7]) | Transrepression U937 Cells GITAR Emax (GR [2]; [8]) | Emax (GR [1]; [9]) | solubility (Solubility at pH 2; [10]) | Emax (GR [1]; A549, Table 4, literature compounds, read-out: GRAMMER EMAX) | EC50 (GR [1]; Table 4, literature compounds, read-out: GRAMMER IP) | EC50 (GR [2]; Table 4, literature compounds, read-out: GITAR IP) | Emax (GR [2]; U-937, Table 4, literature compounds, read-out: GITAR EMAX) | solubility (Solubility at pH 2; Table 4, literature compounds)
Cc1cccnc1C(O)C[C@]1(O)CCC2=Cc3c(cnn3-c3ccc(F)cc3)C[C@@]21C (single isomer, unassigned) [Example 1a] | 116 nM | 64.8% | 95.2 nM | 71.3% | 148 µM (≈ 62.1 µg/mL) | – | – | – | – | – | – | – | –
Cc1cccnc1C(O)C[C@]1(O)CCC2=Cc3c(cnn3-c3ccc(F)cc3)C[C@@]21C (single isomer, unassigned) [Example 1b] | 236 nM | 27.4% | 233 nM | – | – | 58.3% | – | – | – | – | – | – | –
C[C@]12Cc3cnn(-c4ccc(F)cc4)c3C=C1CC[C@@]2(O)CC(O)c1ccccn1 (single isomer, unassigned) [Example 2a] | 346 nM | – | 237 nM | 63.5% | 105 µM (≈ 42.6 µg/mL) | – | 23.1% | – | – | – | – | – | –
C[C@]12Cc3cnn(-c4ccc(F)cc4)c3C=C1CC[C@@]2(O)CC(O)c1ccccn1 (single isomer, unassigned) [Example 2b] | 255 nM | 26.8% | 128 nM | – | – | 68.6% | – | 192 µM (≈ 77.9 µg/mL) | – | – | – | – | –
C[C@]12Cc3cnn(-c4ccc(F)cc4)c3C=C1CC[C@@]2(O)CC(O)c1cc(C(F)(F)F)ccn1 (single isomer, unassigned) [Example 5a] | 52.1 nM | – | 67.5 nM | 89.1% | – | – | 15.1% | 18 µM (≈ 8.52 µg/mL) | – | – | – | – | –
C[C@]12Cc3cnn(-c4ccc(F)cc4)c3C=C1CC[C@@]2(O)CC(O)c1cc(C(F)(F)F)ccn1 (single isomer, unassigned) [Example 5b] | 158 nM | 18.1% | 145 nM | – | – | 75.6% | – | 3 µM (≈ 1.42 µg/mL) | – | – | – | – | –
C[C@]12Cc3cnn(-c4ccc(F)cc4)c3C=C1CC[C@@]2(O)CC(O)c1ccc(F)cn1 (single isomer, unassigned) [Example 7a] | 320 nM | – | 441 nM | 75.2% | 64 µM (≈ 27.1 µg/mL) | – | 18.6% | – | – | – | – | – | –
C[C@]12Cc3cnn(-c4ccc(F)cc4)c3C=C1CC[C@@]2(O)CC(O)c1ccc(F)cn1 (single isomer, unassigned) [Example 7b] | 85.5 nM | 16.6% | 248 nM | – | – | 83.0% | – | 35 µM (≈ 14.8 µg/mL) | – | – | – | – | –
C[C@]12Cc3cnn(-c4ccc(F)cc4)c3C=C1CC[C@@]2(O)CC(O)c1cc(Cl)ccn1 (single isomer, unassigned) [Example 8a] | 129 nM | – | 96.7 nM | 77.9% | – | – | 21.4% | <1 µM | – | – | – | – | –
C[C@]12Cc3cnn(-c4ccc(F)cc4)c3C=C1CC[C@@]2(O)CC(O)c1cc(Cl)ccn1 (single isomer, unassigned) [Example 8b] | 26.7 nM | 25.2% | 23.7 nM | – | – | 91.1% | – | 119 µM (≈ 52.4 µg/mL) | – | – | – | – | –
C[C@]12Cc3cnn(-c4ccc(F)cc4)c3C=C1CC[C@@]2(O)CC(O)c1cc(Br)ccn1 (single isomer, unassigned) [Example 10a] | 17.4 nM | 8.2% | 230 nM | – | – | 97.5% | – | 7 µM (≈ 3.39 µg/mL) | – | – | – | – | –
C[C@]12Cc3cnn(-c4ccc(F)cc4)c3C=C1CC[C@@]2(O)CC(O)c1cc(Br)ccn1 (single isomer, unassigned) [Example 10b] | 80 nM | 19.8% | 48 nM | – | – | 64.3% | – | 2 µM (≈ 0.969 µg/mL) | – | – | – | – | –
C[C@]12Cc3cnn(-c4ccc(F)cc4)c3C=C1CC[C@@]2(O)C#Cc1ccccc1 [Ex. 1 WO 04/075840 A2, reference compound] | – | – | – | – | – | – | – | – | 6.19% | 385 nM | 1660 nM | 12.8% | poor
